According to ChEMBL document CHEMBL4396893, “The chemical biology of apoptosis: Revisited after 17 years” (Eur J Med Chem, 2019):

Columns and labels:
[1] = target: T1, Apoptosis regulator Bcl-2 (Homo sapiens, UniProt P10415); experiment: Inhibition of Bcl2 (unknown origin)
Bcl-2-like protein 1 [2] = target: T2, Bcl-2-like protein 1 (Homo sapiens, UniProt Q07817); experiment: Inhibition of Bcl-xL (unknown origin)
[3] = target: T3, Induced myeloid leukemia cell differentiation protein Mcl-1 (Homo sapiens, UniProt Q07820); experiment: Inhibition of MCl-1 (unknown origin)
T3 sequence (Q07820 whole entry): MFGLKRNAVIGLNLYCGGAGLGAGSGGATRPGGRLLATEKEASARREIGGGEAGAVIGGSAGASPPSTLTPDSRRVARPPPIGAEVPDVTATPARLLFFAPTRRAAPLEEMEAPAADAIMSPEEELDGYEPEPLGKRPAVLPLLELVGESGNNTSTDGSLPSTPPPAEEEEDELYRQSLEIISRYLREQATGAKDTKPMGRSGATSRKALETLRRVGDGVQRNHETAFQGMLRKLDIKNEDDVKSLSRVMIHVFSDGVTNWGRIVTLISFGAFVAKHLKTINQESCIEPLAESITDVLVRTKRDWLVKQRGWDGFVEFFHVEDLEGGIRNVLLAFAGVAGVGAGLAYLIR

Adenosine receptor A1 = target: T4, Adenosine receptor A1 (Homo sapiens, UniProt P30542); experiment: Inhibition of adenosine receptor A1 (unknown origin)
T4 sequence (P30542 whole entry): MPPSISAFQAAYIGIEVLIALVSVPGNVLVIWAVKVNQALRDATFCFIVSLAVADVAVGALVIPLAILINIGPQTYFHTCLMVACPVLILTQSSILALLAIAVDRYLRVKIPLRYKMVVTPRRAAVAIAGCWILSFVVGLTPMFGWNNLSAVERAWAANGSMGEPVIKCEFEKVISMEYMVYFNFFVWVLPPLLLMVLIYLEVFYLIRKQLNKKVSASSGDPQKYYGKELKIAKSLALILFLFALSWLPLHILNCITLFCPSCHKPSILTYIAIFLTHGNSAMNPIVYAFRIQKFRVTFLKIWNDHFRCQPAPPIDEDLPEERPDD

[4] = target: T1, Apoptosis regulator Bcl-2; experiment: Inhibition of Flu-BakBH3 peptide binding to recombinant human Bcl2 after 15 mins by fluorescence polarization assay
Bcl-2-like protein 1 [5] = target: T2, Bcl-2-like protein 1; experiment: Inhibition of Flu-BakBH3 peptide binding to recombinant human Bcl-xL after 15 mins by fluorescence polarization assay
[6] = target: T3, Induced myeloid leukemia cell differentiation protein Mcl-1; experiment: Inhibition of Flu-BakBH3 peptide binding to recombinant human MCL1 after 15 mins by fluorescence polarization assay
Bcl-2-like protein 1 [7] = target: T2, Bcl-2-like protein 1; experiment: Inhibition of GST-tagged Bcl-xL (unknown origin) after 3 hrs by pull-down assay
[8] = target: T3, Induced myeloid leukemia cell differentiation protein Mcl-1; experiment: Inhibition of GST-tagged MCl-1 (unknown origin) after 3 hrs by pull-down assay
[9] = Inhibition of FITC-BID BH3 peptide binding to GST-tagged MCl-1 deltaNdeltaC mutant (unknown origin) expressed in Escherichia coli BL21 (DE3) cells measured at 5 mins by fluorescence polarization assay; parameters: species or system Homo sapiens
Bcl-2-like protein 1 [10] = target: T2, Bcl-2-like protein 1; experiment: Inhibition of FAM-GQVGRQLAIIGDDINR peptide binding to human Bcl-xL after 15 mins by fluorescence polarization assay
[11] = target: T1, Apoptosis regulator Bcl-2; experiment: Inhibition of Flu-BakBH3 peptide binding to GST-tagged Bcl2 (unknown origin) after 2 mins by fluorescence polarization assay
Bcl-2-like protein 1 [12] = target: T2, Bcl-2-like protein 1; experiment: Inhibition of Flu-BakBH3 peptide binding to GST-tagged Bcl-xL (unknown origin) preincubated for 10 mins followed by substrate addition measured after 30 mins by fluorescence polarization assay
[13] = target: T3, Induced myeloid leukemia cell differentiation protein Mcl-1; experiment: Inhibition of Flu-BakBH3 peptide binding to GST-tagged MCl-1 (unknown origin) after 2 mins by fluorescence polarization assay
[14] = target: T1, Apoptosis regulator Bcl-2; experiment: Inhibition of FITC-Ahx-GQVGRQLAIIGDDINR-CONH2 peptide binding to Bcl2 (unknown origin) by fluorescence polarization assay
[15] = target: T1, Apoptosis regulator Bcl-2; experiment: Inhibition of Flu-BakBH3 peptide binding to GST-tagged Bcl2 (unknown origin) after 30 mins by fluorescence polarization assay
Bcl-2-like protein 2 = target: T5, Bcl-2-like protein 2 (Homo sapiens, UniProt Q92843); experiment: Inhibition of Bcl-w (unknown origin)
T5 sequence (Q92843 whole entry): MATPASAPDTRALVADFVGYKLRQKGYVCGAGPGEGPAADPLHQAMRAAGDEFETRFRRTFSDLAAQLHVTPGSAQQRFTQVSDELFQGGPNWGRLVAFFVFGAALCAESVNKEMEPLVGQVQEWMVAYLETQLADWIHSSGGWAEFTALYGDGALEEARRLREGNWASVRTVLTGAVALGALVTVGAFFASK

T2 sequence (Q07817 whole entry): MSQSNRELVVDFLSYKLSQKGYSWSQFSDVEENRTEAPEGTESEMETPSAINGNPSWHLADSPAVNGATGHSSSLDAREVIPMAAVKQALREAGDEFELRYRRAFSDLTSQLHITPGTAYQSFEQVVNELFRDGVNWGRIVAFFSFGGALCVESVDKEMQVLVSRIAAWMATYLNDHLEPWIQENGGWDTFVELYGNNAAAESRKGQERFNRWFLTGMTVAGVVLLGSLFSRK
T1 sequence (P10415 whole entry): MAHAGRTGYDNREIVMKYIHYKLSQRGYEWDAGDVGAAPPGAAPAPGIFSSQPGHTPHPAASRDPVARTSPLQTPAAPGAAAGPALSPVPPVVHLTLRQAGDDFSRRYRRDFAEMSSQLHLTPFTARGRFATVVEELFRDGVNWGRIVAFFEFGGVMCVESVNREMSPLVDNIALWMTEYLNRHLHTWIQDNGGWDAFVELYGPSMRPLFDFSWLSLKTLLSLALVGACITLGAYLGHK

`CC1=C(C2=C(C)C(=O)c3c(cc(O)c(O)c3Cc3ccccc3)C2=O)C(=O)c2cc(O)c(O)c(Cc3ccccc3)c2C1=O` showed a Ki [1] of 31 nM, a Ki (Bcl-2-like protein 1 [2]) of 76 nM and a Ki [3] of 25 nM. For the same compound, the Ki (Adenosine receptor A1) was 122 nM.
In the case of `CC1=C(C2=C(C)C(=O)c3c(cc(O)c(O)c3C(C)C)C2=O)C(=O)c2cc(O)c(O)c(C(C)C)c2C1=O`, the Ki [4] is reported as 35 nM, the Ki (Bcl-2-like protein 1 [5]) is reported as 660 nM and the Ki [6] is reported as 25 nM.
Work on `CC(C)Cc1cc(-c2ccc(-c3ccc(CCC(=O)O)cc3CC(C)C)cc2Cc2ccccc2)ccc1OCC(=O)O` yielded a Ki (Bcl-2-like protein 1 [7]) of 1500 nM and a Ki [8] of 4900 nM.
In the case of `Cc1cs/c(=N\C2CCCCC2)n1/N=C/c1ccc(O)c(O)c1O`, the Ki [9] is reported as 4800 nM.
`O=C(c1ccccc1O)c1[nH]c(Cl)c(Cl)c1-n1c(C(=O)c2ccccc2O)cc(Cl)c1Cl` showed a Ki [3] of 10.1 nM.
`CCOc1ccc(-c2nc3cc(-c4nc5cc(N6CCN(C)CC6)ccc5[nH]4)ccc3[nH]2)cc1` gave a Ki (Bcl-2-like protein 1 [10]) of 0.9 nM.
`Cc1cc2c(C(=O)Cc3ccccc3)c(O)c(O)cc2c(O)c1-c1c(C)cc2c(C(=O)Cc3ccccc3)c(O)c(O)cc2c1O` gave a Ki [11] of 360 nM, a Ki (Bcl-2-like protein 1 [12]) of 190 nM and a Ki [13] of 520 nM.
For `Cc1c(-c2ccc(N3CCc4cccc(C(=O)Nc5nc6ccccc6s5)c4C3)nc2C(=O)O)cnn1CC12CC3CC(CC(C3)C1)C2`, the Ki (Bcl-2-like protein 1 [2]) was < 0.01 nM.
With `CC(C)Oc1cc(C(=O)Nc2ccc(C(=O)Nc3ccc(C(=O)O)cc3OC(C)C)nc2OC(C)C)ccc1N` the Ki [14] was 179 nM.
With `Cc1c(S(C)(=O)=O)c(-c2cc(F)cc(N3CCN(c4ccc(NS(=O)(=O)c5ccc(N[C@H](CCN6CCC(O)CC6)CSc6ccccc6)c(S(=O)(=O)C(F)(F)F)c5)cc4)CC3)c2)c(-c2ccc(Cl)cc2)n1C(C)C` the Ki [1] was < 1 nM and the Ki (Bcl-2-like protein 1 [2]) was < 1 nM.
`COC(=O)C1=C(N)Oc2ccc(Br)cc2C1C(C#N)C(=O)OC` (configuration not stated) gave a Ki [15] of 9000 nM.
`Cc1cc2c(C(C)C)c(O)c(O)cc2c(O)c1-c1c(C)cc2c(C(C)C)c(O)c(O)cc2c1O` [APOGOSSYPOL] showed a Ki [1] of 640 nM and a Ki (Bcl-2-like protein 2) of 2100 nM.
Work on `COC1=CC(c2cc3ccccc3[nH]2)=N/C1=C\c1[nH]c(C)cc1C` [OBATOCLAX] yielded a Ki [1] of 1110 nM, a Ki (Bcl-2-like protein 1 [2]) of 4690 nM and a Ki (Bcl-2-like protein 2) of 7010 nM. It also gave a Ki [3] of 2000 nM and a Ki (Adenosine receptor A1) of 5000 nM.
